Reference: publication PMC11085208, “Cyclometalated and NNN Terpyridine Ruthenium Photocatalysts and Their Cytotoxic Activity” (Molecules, 2024)
Several values for one entry are separate records, joined by “and”; a condition that tells them apart may be missing. Equal values may be shown once. Entries after “also recorded” stand apart in the source; their conditions may differ.

Legend:
[1] = test system: Nthy-ori 3-1 cells; assay: MTT cell viability assay, non-tumorigenic Nthy-ori 3-1 cells; format: cell-based, human; details: MTT test, 72 h, nontumorigenic thyroid cells, mean ± SD
Description: (§1) Anaplastic thyroid cancer (ATC), while rare, remains one of the deadliest cancers known, showing a median overall survival of 3 months. […] Several therapeutic strategies were thus developed, ranging from more classical methods such as inhibition of cyclin-dependent kinases, to more innovative ones including the use of epigenetic drugs. However, so far, all efforts made in the search for new molecules that can counteract the very high mortality of ATC have often been thwarted by the relative ease with which cancer cells are able to gain drug resistance. For these reasons, the development of new molecules that can increase ATC treatment options is crucial in an effort to extend the life expectancy. A preliminary assessment of the effects of the compounds under consideration involved studying their effectiveness in terms of cell viability. In order to evaluate the antitumor efficacy of ruthenium compounds, they were administered to ATC cells (SW1736 and 8505C) and to a non-tumorigenic thyroid cell line (Nthy-ori 3-1) at increasing doses, and an MTT assay was performed. Once the effects in terms of cell viability were observed, the effective dose 50 (ED50) was calculated by interpolation of the scatter plot curve (dose/effect). The two lines of ATC were similarly sensitive to each of the compounds tested, with the ED50 spanning from 0.3 to 8 µM, calculated at a 72 h time point (Table 2).
(§2) In this study, we used two different human anaplastic thyroid cancer cell lines (SW1736 and 8505C) and a non-tumorigenic thyroid cell line (Nthy-ori 3-1) that were grown as previously described. All cell lines have been validated by short tandem repeat and tested for being mycoplasma-free. Cells were grown in RPMI 1640 medium (EuroClone, Milan, Italy) supplemented with 10% fetal bovine serum (Gibco Invitrogen, Milan, Italy), 2 mM L-glutamine (EuroClone, Milan, Italy), and […] gentamicin (Gibco Invitrogen, Milan, Italy). Cells were maintained in a humidified incubator (5% CO2, 37 °C).
(§3) In order to test cell viability, we applied the methylthiazolyldiphenyl-tetrazolium bromide (MTT) assay as previously described. SW1736, 8505C and Nthy-ori 3-1cells (3000 cells/well) were plated onto 96-well plates in 200 μL medium/well and were allowed to attach to the plate for 24 h (t0). Plates were then treated either with DMSO or with each of the different compounds at different concentrations for 72 h. Then, 4 mg/mL MTT (Merck, Darmstadt, Germany) was added to the cell medium, and cells were cultivated for another 4 h in the incubator. The supernatant was removed, 100 μL/well of DMSO (Merck, Darmstadt, Germany) was added, and the absorbance at 570 nm was measured. All experiments were run sixfold and cell viability was expressed as a fold change compared to control. ED50 was calculated by interpolation of the scatter plot obtained by crossing each dose with its own observed effect.

[2] = test system: SW1736 cells; assay: MTT cell viability assay, SW1736 cells; format: cell-based, human; details: for ED50 SW1736: MTT test, 72 h, mean ± SD
Description: as §1, §2, §3

[3] = test system: 8505C cells; assay: MTT cell viability assay, 8505C cells; format: cell-based, human; details: MTT test, 72 h, mean ± SD
Description: as §1, §2, §3

[4] = test system: anaplastic thyroid cancer 8505C and SW1736 cell lines; assay: MTT cell viability assay, ATC cell lines taken together; format: cell-based; details: 72 h
Description: as §1
In this study, we used two different human anaplastic thyroid cancer cell lines (SW1736 and 8505C) and a non-tumorigenic thyroid cell line (Nthy-ori 3-1) that were grown as previously described. […]
In order to test cell viability, we applied the methylthiazolyldiphenyl-tetrazolium bromide (MTT) assay as previously described. […] The supernatant was removed, 100 μL/well of DMSO (Merck, Darmstadt, Germany) was added, and the absorbance at 570 nm was measured. All experiments were run sixfold and cell viability was expressed as a fold change compared to control. ED50 was calculated by interpolation of the scatter plot obtained by crossing each dose with its own observed effect.

Molecule	ED50 Nthy-ori 3-1 [1] [µM]	ED50 SW1736 [2]	ED50 8505C [3] [µM]	cytotoxicity (ED50) compared to the enantiomer 6 ([2]; ED50 0.31 vs 1.39 µM)	cytotoxicity (in words) [4]
N.N.[Cl][Pt][Cl] [Cisplatin, reference compound]	11.28 ± 0.96	6.40 ± 1.54 µM	5.20 ± 1.82	–	–
[Ru(η^1-OAc)(NNN-tpy)((R,R)-Skewphos)]OAc [Complex 6]	4.38 ± 0.13	1.39 µM and 1.39 ± 0.14 µM	1.88 ± 0.21	–	–
[Ru(η^1-OAc)(NNN-tpy)((S,S)-Skewphos)]OAc [Complex 7]	4.85 ± 0.17	0.31 µM and 0.31 ± 0.11 µM	0.75 ± 0.09	four times lower; also recorded: four times higher	–
[Ru(η^2-OAc)(NC-tpy)((R,R)-Skewphos)] [Complex 4]	3.88 ± 0.31	2.18 ± 0.16 µM	1.95 ± 0.23	–	moderate cytotoxicity
[Ru(η^2-OAc)(NC-tpy)((S,S)-Skewphos)] [Complex 5]	4.18 ± 0.09	2.11 ± 011 µM	2.06 ± 0.26	–	moderate cytotoxicity
[Ru(η^2-OAc)(NC-tpy)(dppb)] [Complex 1]	10.59 ± 1.28	8.53 ± 0.98 µM	7.73 ± 1.02	–	moderate cytotoxicity
[RuCl(NNN-tpy)((R,R)-Skewphos)]Cl [reference compound]	6.91 ± 0.62	3.36 ± 0.42 µM	4.57 ± 0.53	–	–
[RuCl(NNN-tpy)((S,S)-Skewphos)]PF6 [reference compound]	7.21 ± 0.74	2.63 µM and 2.63 ± 0.14 µM	2.25 ± 0.17	–	–
